A short description of data set [1]: Effect of particle size on colonic exposure levels: single rectal dose of niclosamide suspension, blood and rectal mucosa samples. To be noted: rabbit; for plasma concentration of niclosamide (maximum measured): rectal administration, 1 hour (time point of maximum plasma concentration).
Method: These preparations of niclosamide were formulated into a suspension. Rabbits were treated with a single dose of these niclosamide suspensions at the dose levels specified. Following dosing, blood samples and rectal mucosa samples were obtained at indicated time points.
For data set [2] the following is noted: cited from earlier work.

Each structure is given as a SMILES string.

In data set [1] (colon tissue, other: rectal, 22.5 mg), `O=C(Nc1ccc([N+](=O)[O-])cc1Cl)c1cc(Cl)ccc1O` [milled niclosamide, 5-chloro-N-(2-chloro-4-nitrophenyl)-2-hydroxybenzamide] gave a concentration at 1 hour of 6090 ng/mL. In addition, the “plasma concentration of niclosamide (maximum measured)” value in data set [1] (7.5 mg single dose) came to 6.576; in data set [1] (22.5 mg single dose) it was 20.24.
For `O=C(Nc1ccc([N+](=O)[O-])cc1Cl)c1cc(Cl)ccc1O` [Niclosamide, 5-chloro-N-(2-chloro-4-nitrophenyl)-2-hydroxybenzamide], the solubility in acetone result in data set [2] (acetone) was “soluble”. Further, the “solubility in ether, ethanol and chloroform” value in data set [2] (ether, ethanol and chloroform) is “sparingly soluble”. In data set [2] (water, 20° C.), the water solubility was 5 to 8 mg/L.
